These results are taken from patent publication US4853410A, “Hydroxyacetic acid derivatives for the treatment of diabetic complications” (Pfizer Inc., priority 1987, dated 1989).

Each structure is given as a SMILES string. Read-outs that look alike come from different tables or passages of the source.

This test deals with T1, aldose reductase enzyme (Homo sapiens, UniProt P15121).
T1 construct: partially purified aldose reductase enzyme obtained from human placenta; from tissue; host or cells: human placenta
The experiment in a line: in vitro inhibition of aldose reductase enzyme activity (procedure of U.S. Pat. No. 3,821,383, based on Hayman et al.). The test is classed as biochemical. An excerpt:
The substrate employed is partially purified aldose reductase enzyme obtained from human placenta.

For `C[C@@H]1C[C@@](O)(CC(=O)O)c2cc(Cl)ccc2O1` (relative stereo) [Example 15, 6-Chloro-c-4-hydroxy-r-2-methylchroman-4-acetic Acid], where the note is “read-out: IC50, inhibition concentration calculated to show 50% inhibition of enzyme activity, partially purified aldose reductase from human placenta”, the IC50 was about 860 nM.

The molecule `C[C@@H]1C[C@@](O)(CC(=O)O)c2cc([N+](=O)[O-])c(Cl)cc2O1` (relative stereo) [Example 82, 7-Chloro-6-nitro-c-4-hydroxy-r-2-methylchroman-4-acetic acid] had an IC50 of about 51 nM.

Take `C[C@@H]1C[C@@](O)(CC(=O)O)c2cc(Cl)c(Cl)cc2S1(=O)=O` (relative stereo) [Example 113, 6,7-Dichloro-c-4-hydroxy-r-2-methyl-3,4-dihydro-2H-1-thianaphthalene-4-acetic Acid 1,1-Dioxide]: the inhibition at 10 µM (at 10^-5 M, partially purified aldose reductase from human placenta, read-out: percent inhibition of enzyme activity) amounted to 37%.

As a reminder, the inhibition is the change of the read-out against control, counted positive when it falls.
